Patent US20090117593A1, “T. Cruzi-derived neurotrophic agents and methods of use therefor” (Tufts University, priority 2006, published 2009)
Entries after “also recorded” stand apart in the source; their conditions may differ.

Experiments:
Assay type in all cases: cell-based
PC12 cells = details: serum-free RPMI/0.2% BSA, collagen coated dishes, 16-17 hours
[1] = system: PC12 cells or Schwann cells; experiment: Inhibition of apoptosis of PC12 cells or Schwann cells by synthetic peptides
PC12^TrkA cells [2] = experiment: Survival of PC12^TrkA cells in serum-free medium (MTT, DAPI); details: peptides 10 μM, PDNF 500 ng/ml, NGF 30 ng/ml; 48 hours to 5 days
Method: (§1) PC12^nnr5 and PC12^TrkA cells were grown in RPMI with 10% FCS and 5% horse serum as described earlier (Green et al., J. Cell Biol. 102:830-843 (1986); Chuenkova and Pereira, Mol. Biol. Cell 11: 1487-1498 (2000)). Two approaches were used to study neurite extension: 1) Plating cells (1×10^5 cells/ml) on plastic wells (LABTECH 16-well slides, Nalge Nunc International, Naperville, Ill.) coated with synthetic peptides (100 μg/ml water, 4° C., overnight) or rat tail collagen (1 mg/ml PBS, 4° C., overnight). 2) Adding peptides in solution to cells plated on uncoated substratum. Cells were grown in 1% FCS-containing RPMI for 72 hours, and reacted with 0.5 mg/ml MTT (3-[4,5-dimethylthiazol-2-yl]-2,5-diphenyltetrazolium bromide) (SIGMA, St. Louis, Mo.) in serum-free medium for 1 hour at 37° C. Light microscopy was used to visualize viable cells (i.e., containing reduced insoluble formazan) with or without extended neurites (>5 μm in length). Cell viability was also determined using the CELLTITER 96 assay (Promega, Madison, Wis.) as follows: Cells, plated at 2×10^5/ml, were treated with peptides in serum-free medium for different times and exposed to CELLTITER 96 Aqueous One Solution for 1 hour at 37° C. 2) Apoptotic cells were identified by staining with DAPI (250 ng/ml) (SIGMA) 48 hours after cells were exposed to serum-free medium with or without additives in solution, as described earlier (Chuenkova and Pereira, Mol. Biol. Cell 11:1487-1498 (2000)). […]

PC12^TrkA cells [3] = experiment: Neurite extension of PC12^TrkA cells; details: coated substratum or in medium (10 μM), 1% FCS
Method: as §1, with “C.” for “C. 2) Apoptotic cells were identified by staining with DAPI (250 ng/ml) (SIGMA) 48 hours after cells were exposed to serum-free medium with or without additives in solution, as described earlier (Chuenkova and Pereira, Mol. Biol. Cell 11:1487-1498 (2000)).”

Erk1/2 = Erk1/2 phosphorylation in PC12 cells; details: 5 minutes; control peptides 10 μM
Method: Activation state of TrkA, Erk1/2 and Akt kinases and transcription factor CREB was analyzed by assessing phosphorylation by Western blot with appropriate phospho-specific antibodies. For this, cells were plated in complete medium at a density of 3×10^5 cells/ml overnight on 6-well plates (BECTON DICKINSON LABWARE, Franklin Lakes, N.J.). The medium was changed to serum-free medium and the cells cultured for an additional 24 hours to reduce background phosphorylation. […] Antibody reaction was visualized by horseradish peroxidase (HRP)-conjugated secondary antibody and enhanced chemiluminescence kit (ECL). Some blots were stripped in appropriate buffer (50 mM Tris HCl, pH 7.8, 2% SDS, 1% β-mercaptoethanol) at 50° C. for 60 minutes and re-probed with p42/44MAPK, Akt or CREB antibody to ensure equal loading of proteins. For immunoprecipitation experiments, cell lysates were pre-adsorbed on protein G-Sepharose for 1 hour at 4° C. and after brief centrifugation supernatants were incubated with anti-TrkA antibody for 24 hours at 4° C. with gentle rocking. Formed immunocomplexes were captured on protein G-Sepharose, eluted with SDS-PAGE sample buffer and analyzed by immunoblotting with antibody against phospho-TrkA receptor.

neuroblastoma N18 cells = experiment: Neurite outgrowth assay in N18 cells; details: soluble or immobilized on plastic (500 μg/ml coating), 17 hours
Method: 96-well microtiter plates were coated overnight at 4° C. with the TS or peptides or fragments thereof, or with control proteins laminin (Ln) or bovine serum albumin (BSA) at 500 μg/ml. After removing the compounds, the plates were further incubated with 1% BSA for 1 hour at room temperature and immediately used as substratum for PC12 or N18 (Prasad, K., Biol. Rev. Camb. Philos. Soc., 66:431-451 (1991)) cells in serum-free RPMI/0.2% BSA. Neurite outgrowth was measured using a phase-contrast microscope 17 hours later.

DSSAHGTPSTPA [peptide TR]
neurite outgrowth in PC12 cells (PC12 cells): did not induce neurite outgrowth; also recorded: did not promote neurite outgrowth | suppression of apoptosis of PC12 cells or Schwann cells [1]: did not inhibit apoptosis | survival of PC12^TrkA cells in serum-free medium (PC12^TrkA cells [2]): inactive; also recorded: did not significantly promoted cell survival; also recorded: did not support survival and neurite extension | neurite extension / differentiation of PC12^TrkA cells (PC12^TrkA cells [3]): did not spread and extend neurites; also recorded: did not support survival and neurite extension | Erk1/2 phosphorylation in PC12 cells (Erk1/2): did not activate Erk

laminin [reference compound]
neurite outgrowth in N18 cells (neuroblastoma N18 cells): induced
